Assay results as given in ChEMBL document CHEMBL5154681, “Small Amphiphilic Peptides: Activity Against a Broad Range of Drug-Resistant Bacteria and Structural Insight into Membranolytic Properties” (J Med Chem, 2022).
Values after ≈ are worked out from the molar mass of the structure shown. Square brackets hold non-standard residues; d marks the D form. Peptide text beside a SMILES is read from it. Bip = N[C@@H](Cc1ccc(-c2ccccc2)cc1)C(=O)O; Dip = N[C@H](C(=O)O)C(c1ccccc1)c1ccccc1; 2Nal = N[C@@H](Cc1ccc2ccccc2c1)C(=O)O

What was measured:
[1] = Hemolytic activity in human RBC assessed as hemolysis incubated for 2 hrs by spectrophotometer analysis; assay type: toxicity, cell-based, Erythrocyte; details: human red blood cells (erythrocytes)
[2] = test system: Staphylococcus aureus; test: Antibacterial activity against methicillin resistant Staphylococcus aureus ATCC BAA-1556 incubated for 24 hrs by microtiter plate method; assay type: functional; details: Staphylococcus aureus, ATCC BAA-1556, 24 h, read-out: MIC
[3] = test system: Pseudomonas aeruginosa; test: Antibacterial activity against Pseudomonas aeruginosa ATCC 27883 incubated for 24 hrs by microtiter plate method; assay type: functional; details: Pseudomonas aeruginosa, ATCC 27883, 24 h, read-out: MIC
[4] = test system: Staphylococcus aureus; test: Antibacterial activity against Staphylococcus aureus ATCC 29213 incubated for 24 hrs by microtiter plate method; assay type: functional; details: Staphylococcus aureus, ATCC 29213, read-out: MIC
[5] = test system: Escherichia coli; test: Antibacterial activity against Escherichia coli ATCC 25922 incubated for 24 hrs by microtiter plate method; assay type: functional; details: Escherichia coli, ATCC 25922, 24 h, read-out: MIC

## NCCCC[C@H](NC(=O)[C@H](CCCCN)NC(=O)[C@H](CCCCN)NC(=O)[C@@H](N)CCCCN)C(=O)N[C@@H](CCCCN)C(=O)N[C@H](C(=O)N[C@H](C(=O)N[C@H](C(=O)O)C(c1ccccc1)c1ccccc1)C(c1ccccc1)c1ccccc1)C(c1ccccc1)c1ccccc1 (H-KKKKK[Dip][Dip][Dip]-OH)
[1]
  HC50 at 2 h: 280 µg/mL
[2]
  MIC: 50 µg/mL (≈ 37.6 µM)
[3]
  MIC: > 100 µg/mL
[4]
  MIC: 50 µg/mL (≈ 37.6 µM)
[5]
  MIC: > 100 µg/mL

## NCCCC[C@H](NC(=O)[C@H](CCCCN)NC(=O)[C@@H](N)CCCCN)C(=O)N[C@@H](CCCCN)C(=O)N[C@H](C(=O)N[C@H](C(=O)N[C@H](C(=O)O)C(c1ccccc1)c1ccccc1)C(c1ccccc1)c1ccccc1)C(c1ccccc1)c1ccccc1 (H-KKKK[Dip][Dip][Dip]-OH)
[1]
  HC50 at 2 h: 255 µg/mL
[2]
  MIC: 25 µg/mL (≈ 20.8 µM)
[3]
  MIC: > 100 µg/mL
[4]
  MIC: 25 µg/mL (≈ 20.8 µM)
[5]
  MIC: > 100 µg/mL

## N=C(N)NCCC[C@H](NC(=O)[C@H](CCCNC(=N)N)NC(=O)[C@H](CCCNC(=N)N)NC(=O)[C@H](CCCNC(=N)N)NC(=O)[C@@H](N)CCCNC(=N)N)C(=O)N[C@@H](Cc1ccc2ccccc2c1)C(=O)N[C@@H](Cc1ccc2ccccc2c1)C(=O)N[C@@H](Cc1ccc2ccccc2c1)C(=O)O (H-RRRRR[2Nal][2Nal][2Nal]-OH)
[1]
  HC50 at 2 h: 190 µg/mL
[2]
  MIC: 6.2 µg/mL (≈ 4.46 µM)
[3]
  MIC: 25 µg/mL (≈ 18 µM)
[4]
  MIC: 6.2 µg/mL (≈ 4.46 µM)
[5]
  MIC: 25 µg/mL (≈ 18 µM)

## N=C(N)NCCC[C@H](NC(=O)[C@H](CCCNC(=N)N)NC(=O)[C@H](CCCNC(=N)N)NC(=O)[C@@H](N)CCCNC(=N)N)C(=O)N[C@@H](CCCNC(=N)N)C(=O)N[C@H](C(=O)N[C@H](C(=O)N[C@H](C(=O)O)C(c1ccccc1)c1ccccc1)C(c1ccccc1)c1ccccc1)C(c1ccccc1)c1ccccc1 (H-RRRRR[Dip][Dip][Dip]-OH)
[1]
  HC50 at 2 h: 165 µg/mL
[2]
  MIC: 12.5 µg/mL (≈ 8.51 µM)
[3]
  MIC: 50 µg/mL (≈ 34 µM)
[4]
  MIC: 12.5 µg/mL (≈ 8.51 µM)
[5]
  MIC: 25 µg/mL (≈ 17 µM)

## N=C(N)NCCC[C@H](NC(=O)[C@H](CCCNC(=N)N)NC(=O)[C@H](CCCNC(=N)N)NC(=O)[C@@H](N)CCCNC(=N)N)C(=O)N[C@@H](Cc1ccc2ccccc2c1)C(=O)N[C@@H](Cc1ccc2ccccc2c1)C(=O)O (H-RRRR[2Nal][2Nal]-OH)
[1]
  HC50 at 2 h: 180 µg/mL
[2]
  MIC: 6.2 µg/mL (≈ 5.98 µM)
[3]
  MIC: > 100 µg/mL
[4]
  MIC: 6.2 µg/mL (≈ 5.98 µM)
[5]
  MIC: 50 µg/mL (≈ 48.2 µM)

## N=C(N)NCCC[C@H](NC(=O)[C@H](CCCNC(=N)N)NC(=O)[C@H](CCCNC(=N)N)NC(=O)[C@@H](N)CCCNC(=N)N)C(=O)N[C@@H](Cc1ccc2ccccc2c1)C(=O)N[C@@H](Cc1ccc2ccccc2c1)C(=O)N[C@@H](Cc1ccc2ccccc2c1)C(=O)N[C@@H](Cc1ccc2ccccc2c1)C(=O)O (H-RRRR[2Nal][2Nal][2Nal][2Nal]-OH)
[1]
  HC50 at 2 h: 70 µg/mL
[2]
  MIC: 12.5 µg/mL (≈ 8.73 µM)
[3]
  MIC: > 100 µg/mL
[4]
  MIC: 12.5 µg/mL (≈ 8.73 µM)
[5]
  MIC: 50 µg/mL (≈ 34.9 µM)

## N=C(N)NCCC[C@H](NC(=O)[C@H](CCCNC(=N)N)NC(=O)[C@H](CCCNC(=N)N)NC(=O)[C@@H](N)CCCNC(=N)N)C(=O)N[C@@H](Cc1ccc(-c2ccccc2)cc1)C(=O)N[C@@H](Cc1ccc(-c2ccccc2)cc1)C(=O)N[C@@H](Cc1ccc(-c2ccccc2)cc1)C(=O)O (H-RRRR[Bip][Bip][Bip]-OH)
[2]
  MIC: 12.5 µg/mL (≈ 9.52 µM)
[3]
  MIC: 25 µg/mL (≈ 19 µM)
[4]
  MIC: 6.2 µg/mL (≈ 4.72 µM)
[5]
  MIC: > 100 µg/mL

## N=C(N)NCCC[C@H](NC(=O)[C@H](CCCNC(=N)N)NC(=O)[C@H](CCCNC(=N)N)NC(=O)[C@@H](N)CCCNC(=N)N)C(=O)N[C@@H](Cc1ccc(-c2ccccc2)cc1)C(=O)N[C@@H](Cc1ccc(-c2ccccc2)cc1)C(=O)N[C@@H](Cc1ccc(-c2ccccc2)cc1)C(=O)N[C@@H](Cc1ccc(-c2ccccc2)cc1)C(=O)O (H-RRRR[Bip][Bip][Bip][Bip]-OH)
[2]
  MIC: > 100 µg/mL
[3]
  MIC: > 100 µg/mL
[4]
  MIC: > 100 µg/mL
[5]
  MIC: > 100 µg/mL

## N=C(N)NCCC[C@H](NC(=O)[C@H](CCCNC(=N)N)NC(=O)[C@@H](N)CCCNC(=N)N)C(=O)N[C@@H](CCCNC(=N)N)C(=O)N[C@H](C(=O)N[C@H](C(=O)O)C(c1ccccc1)c1ccccc1)C(c1ccccc1)c1ccccc1 (H-RRRR[Dip][Dip]-OH)
[1]
  HC50 at 2 h: 185 µg/mL
[2]
  MIC: 12.5 µg/mL (≈ 11.5 µM)
[3]
  MIC: 50 µg/mL (≈ 45.9 µM)
[4]
  MIC: 12.5 µg/mL (≈ 11.5 µM)
[5]
  MIC: 50 µg/mL (≈ 45.9 µM)

## N=C(N)NCCC[C@H](NC(=O)[C@H](CCCNC(=N)N)NC(=O)[C@@H](N)CCCNC(=N)N)C(=O)N[C@@H](CCCNC(=N)N)C(=O)N[C@H](C(=O)N[C@H](C(=O)N[C@H](C(=O)N[C@H](C(=O)O)C(c1ccccc1)c1ccccc1)C(c1ccccc1)c1ccccc1)C(c1ccccc1)c1ccccc1)C(c1ccccc1)c1ccccc1 (H-RRRR[Dip][Dip][Dip][Dip]-OH)
[1]
  HC50 at 2 h: 75 µg/mL
[2]
  MIC: 12.5 µg/mL (≈ 8.14 µM)
[3]
  MIC: 50 µg/mL (≈ 32.6 µM)
[4]
  MIC: 6.2 µg/mL (≈ 4.04 µM)
[5]
  MIC: 50 µg/mL (≈ 32.6 µM)

## N=C(N)NCCC[C@H](NC(=O)[C@H](CCCNC(=N)N)NC(=O)[C@@H](N)CCCNC(=N)N)C(=O)N[C@@H](Cc1ccc2ccccc2c1)C(=O)N[C@@H](Cc1ccc2ccccc2c1)C(=O)N[C@@H](Cc1ccc2ccccc2c1)C(=O)O (H-RRR[2Nal][2Nal][2Nal]-OH)
[1]
  HC50 at 2 h: 105 µg/mL
[2]
  MIC: 6.2 µg/mL (≈ 5.75 µM)
[3]
  MIC: 25 µg/mL (≈ 23.2 µM)
[4]
  MIC: 6.2 µg/mL (≈ 5.75 µM)
[5]
  MIC: 12.5 µg/mL (≈ 11.6 µM)

## N=C(N)NCCC[C@H](NC(=O)[C@H](CCCNC(=N)N)NC(=O)[C@@H](N)CCCNC(=N)N)C(=O)N[C@@H](Cc1ccc(-c2ccccc2)cc1)C(=O)N[C@@H](Cc1ccc(-c2ccccc2)cc1)C(=O)N[C@@H](Cc1ccc(-c2ccccc2)cc1)C(=O)O (H-RRR[Bip][Bip][Bip]-OH)
[2]
  MIC: 50 µg/mL (≈ 43.2 µM)
[3]
  MIC: > 100 µg/mL
[4]
  MIC: 50 µg/mL (≈ 43.2 µM)
[5]
  MIC: > 100 µg/mL

## N=C(N)NCCC[C@H](NC(=O)[C@H](CCCNC(=N)N)NC(=O)[C@@H](N)CCCNC(=N)N)C(=O)N[C@H](C(=O)N[C@H](C(=O)N[C@H](C(=O)O)C(c1ccccc1)c1ccccc1)C(c1ccccc1)c1ccccc1)C(c1ccccc1)c1ccccc1 (H-RRR[Dip][Dip][Dip]-OH)
[1]
  HC50 at 2 h: 120 µg/mL
[2]
  MIC: 6.2 µg/mL (≈ 5.36 µM)
[3]
  MIC: 25 µg/mL (≈ 21.6 µM)
[4]
  MIC: 6.2 µg/mL (≈ 5.36 µM)
[5]
  MIC: 6.2 µg/mL (≈ 5.36 µM)

## N=C(N)NCCC[C@H](NC(=O)[C@H](CCCNC(=N)N)NC(=O)[C@H](Cc1ccc2ccccc2c1)NC(=O)[C@H](Cc1ccc2ccccc2c1)NC(=O)[C@H](CCCNC(=N)N)NC(=O)[C@@H](N)CCCNC(=N)N)C(=O)N[C@@H](Cc1ccc2ccccc2c1)C(=O)O (H-RR[2Nal][2Nal]RR[2Nal]-OH)
[1]
  HC50 at 2 h: 195 µg/mL
[2]
  MIC: 25 µg/mL (≈ 20.3 µM)
[3]
  MIC: 25 µg/mL (≈ 20.3 µM)
[4]
  MIC: 12.5 µg/mL (≈ 10.1 µM)
[5]
  MIC: 25 µg/mL (≈ 20.3 µM)

## N=C(N)NCCC[C@H](NC(=O)[C@H](CCCNC(=N)N)NC(=O)[C@@H](NC(=O)[C@@H](NC(=O)[C@H](CCCNC(=N)N)NC(=O)[C@@H](N)CCCNC(=N)N)C(c1ccccc1)c1ccccc1)C(c1ccccc1)c1ccccc1)C(=O)N[C@H](C(=O)O)C(c1ccccc1)c1ccccc1 (H-RR[Dip][Dip]RR[Dip]-OH)
[1]
  HC50 at 2 h: 240 µg/mL
[2]
  MIC: 12.5 µg/mL (≈ 9.52 µM)
[3]
  MIC: 25 µg/mL (≈ 19 µM)
[4]
  MIC: 12.5 µg/mL (≈ 9.52 µM)
[5]
  MIC: 25 µg/mL (≈ 19 µM)

## N=C(N)NCCC[C@H](NC(=O)[C@H](Cc1ccc2ccccc2c1)NC(=O)[C@H](Cc1ccc2ccccc2c1)NC(=O)[C@H](CCCNC(=N)N)NC(=O)[C@H](CCCNC(=N)N)NC(=O)[C@H](Cc1ccc2ccccc2c1)NC(=O)[C@@H](N)CCCNC(=N)N)C(=O)O (H-R[2Nal]RR[2Nal][2Nal]R-OH)
[1]
  HC50 at 2 h: 205 µg/mL
[2]
  MIC: 25 µg/mL (≈ 20.3 µM)
[3]
  MIC: 50 µg/mL (≈ 40.5 µM)
[4]
  MIC: 12.5 µg/mL (≈ 10.1 µM)
[5]
  MIC: 25 µg/mL (≈ 20.3 µM)

## N=C(N)NCCC[C@@H]1NC(=O)[C@H](CCCNC(=N)N)NC(=O)[C@H](Cc2ccc(-c3ccccc3)cc2)NC(=O)[C@H](Cc2ccc(-c3ccccc3)cc2)NC(=O)[C@H](Cc2ccc(-c3ccccc3)cc2)NC(=O)[C@H](CCCNC(=N)N)NC1=O (cyclo([Bip][Bip][Bip]RRR))
[2]
  MIC: 50 µg/mL (≈ 43.9 µM)
[3]
  MIC: > 100 µg/mL
[4]
  MIC: 50 µg/mL (≈ 43.9 µM)
[5]
  MIC: > 100 µg/mL

## N=C(N)NCCC[C@@H]1NC(=O)[C@H](CCCNC(=N)N)NC(=O)[C@H](CCCNC(=N)N)NC(=O)[C@H](Cc2ccc(-c3ccccc3)cc2)NC(=O)[C@H](Cc2ccc(-c3ccccc3)cc2)NC(=O)[C@H](Cc2ccc(-c3ccccc3)cc2)NC(=O)[C@H](CCCNC(=N)N)NC1=O (cyclo([Bip][Bip][Bip]RRRR))
[2]
  MIC: 6.2 µg/mL (≈ 4.79 µM)
[3]
  MIC: 25 µg/mL (≈ 19.3 µM)
[4]
  MIC: 3.1 µg/mL (≈ 2.39 µM)
[5]
  MIC: > 100 µg/mL

## N=C(N)NCCC[C@@H]1NC(=O)[C@H](CCCNC(=N)N)NC(=O)[C@H](CCCNC(=N)N)NC(=O)[C@H](Cc2ccc(-c3ccccc3)cc2)NC(=O)[C@H](Cc2ccc(-c3ccccc3)cc2)NC(=O)[C@H](Cc2ccc(-c3ccccc3)cc2)NC(=O)[C@H](Cc2ccc(-c3ccccc3)cc2)NC(=O)[C@H](CCCNC(=N)N)NC1=O (cyclo([Bip][Bip][Bip][Bip]RRRR))
[2]
  MIC: > 100 µg/mL
[3]
  MIC: > 100 µg/mL
[4]
  MIC: 50 µg/mL (≈ 32.9 µM)
[5]
  MIC: > 100 µg/mL
